Measurements as given in patent publication US11040958B2, “Triazole antimicrobial derivative, pharmaceutical composition and use thereof” (priority 2017, dated 2021).
Like-named read-outs stand apart in the source and are kept apart here. Values belong to the compound of their own block, whether it stands above or below them.

Columns and labels:
[1] = In vitro metabolic stability in human intestinal S9; assay type: in vitro ADME; conditions: 37°C, S9 1 mg/mL, compound 10 μM, NADPH regeneration system
Procedure: (§1) The two reaction systems were set up three samples in parallel, while each sample was taken in an amount of 100 μL at 1 min, 2 mins, 5 mins, 15 mins, and 30 mins after the reaction, added to the centrifuge tube containing 400 μL of 0° C. pre-cooled internal standard working fluid and terminated the reaction. The sample was mixed by vortex for 1 min, centrifuged at 10,000×g for 10 mins in a 4° C. pre-cooled high-speed centrifuge. The supernatant was taken for HPLC detection. […] Concentration of mother liquor of compounds: 1 mM […] [table]

[2] = Solubility test in deionized water (HPLC, external calibration); assay type: physicochemical; conditions: for solubility at 30 min: 25 °C, thermodynamic from solid
Procedure: Experimental condition: 25±2° C.
Dissolving medium: deionized water
Experimental method: 1 mg voriconazole and appropriate amount of each compound were weighed, placed in 1 ml deionized water separately, shaken vigorously for 30 s every 5 mins for 30 mins.

[3] = In vitro metabolic stability in rat intestinal S9; assay type: in vitro ADME; conditions: 37°C, S9 1 mg/mL, compound 10 μM, NADPH regeneration system
Procedure: as §1

[4] = In vitro metabolic stability in rat plasma; assay type: in vitro ADME; conditions: 37°C, compound 10 μM
Procedure: The two reaction systems were set up three samples in parallel, while each sample was taken in an amount of 100 μL at 1 min, 2 mins, 5 mins, 15 mins, and 30 mins after the reaction, added to the centrifuge tube containing 400 μL of 0° C. pre-cooled internal standard working fluid and terminated the reaction. The sample was mixed by vortex for 1 min, centrifuged at 10,000×g for 10 mins in a 4° C. pre-cooled high-speed centrifuge. The supernatant was taken for HPLC detection. […] Concentration of mother liquor of compounds: 1 mM […]

[5] = Pharmacokinetics after single intravenous administration in rats (plasma voriconazole); conditions: rat, in vivo, 2.5 mg/kg
Procedure: Dosage for administration: 2.5 mg/kg (calculated as voriconazole)
Dosing volume for administration: 2.5 ml/kg
Drug concentration: 1 mg/mL (calculated as voriconazole)
Route of administration: tail vein injection Experimental animals: SD rats, SPF grade, weighing 180-220 g, half male and half female; the SD rats were randomized into groups of 6 animals each, three males and three females in each group. Experimental method: Blood samples were collected at different time points after tail vein administration, and the plasma concentrations of voriconazole were measured.

[6] = system: Candida albicans ATCC10231; assay: Systemic fungal infection in mice, intravenous administration, survival; assay type: in vivo; conditions: ICR mice, tail vein, 5 mg/kg (calculated as voriconazole) once daily for 5 days
Procedure: (§2) ICR mice, weighing 18-22 g, male, provided by the Hubei Experimental Animal Center.
(§3) The standard strain Candida albicans was purchased from the American Type Culture Collection, and the strain number was ATCC10231.
Before the experiment, a small amount of Candida albicans was picked from the SDA medium preserved at 4° C. by inoculation circle, and inoculated into 1 ml YPD (Yeast Extract Peptone Dextrose Medium, the same below) culture medium, under shake cultivation at 30° C., 200 rpm, activated for 16 hours to make the fungus in the late stage of the exponential growth phase. Blood cell counting plate was used to count. The concentration of the broth was adjusted to 1*10^3-5*10^3 CFU/ml with RPMI1640 (Roswell Park Memorial Institute 1640, the same below) culture medium. The Candida albicans monoclone on the SDA plate was picked and inoculated into 1 ml YPD medium, cultured at 35° C., 200 rpm for 16 hours to the late exponential growth phase, 1% of which was then inoculated in fresh medium for 6 hours, centrifuged at 1000×g for 5 mins, washed three times with saline until the supernatant was colorless, while hemocytometer was used to count. The cell concentration was adjusted to 5*10^6/ml. The tail vein injection of 0.1 ml/10 g was carried out to cause a systemic fungal infection in mice. The mice were randomized into groups of 10 each. Since voriconazole was insoluble in vehicle (physiological saline), the mice of the voriconazole group in the test were injected a commercially available voriconazole (Pfizer, product lot number Z467001), that is, sulfobutyl ether-β-cyclodextrin used as a solubilizer, while other groups used physiological saline as a solvent. After establishing a systemic fungal infection model in mice for 2 hours, each administration group was administered with 5 mg/kg (calculated as voriconazole) drug in the tail vein, with the volume for administration of 0.1 ml/10 g. The mice in the model group were administered 0.1 ml/10 g of 0.9% sodium chloride solution, once daily, for 5 consecutive days. The death situation of the mice was inspected and the survival time was recorded. After a total of 7 days of observation, all dead mice were treated with fire using ethanol.

[7] = Solid stability test (25°C, RH 60%, 30 days); assay type: physicochemical; conditions: 25°C±2°C, relative humidity 60%±2%
Procedure: Experimental conditions: 25° C.±2° C., relative humidity 60%±2%
Experimental instrument: Agilent 1260 HPLC; chamber for stability test
Experimental method: each compound of the present disclosure was packaged (the inner packaging material was a penicillin bottle; the outer packaging material was a double-layer aluminum foil bag, and a desiccant was added inside and outside the package), placed in the chamber for stability test, at a temperature of 25° C.±2° C. and a relative humidity of 60%±2%. The degradation situation of the compounds for 30 days was examined. The contents of total impurities before and after 30 days of each compound were compared and the results were as follows: […]

[8] = Pharmacokinetics after single gastrointestinal (gavage) administration in rats (plasma voriconazole); assay type: in vivo; conditions: SD rats, 2.5 mg/kg (calculated as voriconazole)
Procedure: Dosing volume for administration: 10 ml/kg
Solvent medium for administration: except for the positive voriconazole group using CMC-Na, the other groups using normal saline
Route of administration: gavage

[9] = system: Candida albicans ATCC10231; assay: Systemic fungal infection in mice, administration by gavage, survival; assay type: in vivo; conditions: ICR mice, 5 mg/kg (calculated as voriconazole) once daily for 5 days
Procedure: as §2, §3
Before the experiment, a small amount of Candida albicans was picked from the SDA medium preserved at 4° C. by inoculation circle, inoculated into 1 ml of YPD culture medium, and cultured at 30° C. while being shaken at 200 rpm for 16 hours to make the fungus in the late stage of exponential growth. Blood cell counting plate was used to count, and the concentration of the broth was adjusted to 1*10^3−5*10^3 CFU/ml with RPMI1640 medium. The Candida albicans monoclone on the SDA plate was picked, inoculated into 1 ml YPD medium, cultured at 35° C., 200 rpm for 16 hours to the late exponential growth phase, 1% of which was then inoculated in fresh medium for 6 hours, centrifuged at 1000×g for 5 mins, washed three times with saline until the supernatant was colorless, while hemocytometer was used to count. The cell concentration was adjusted to 5*10^6/ml. The tail vein injection of 0.1 ml/10 g was carried out to cause a systemic fungal infection in mice. The mice were randomized into groups of 10 each. Voriconazole used was in the form of a suspension prepared with CMC-Na (Shanghai Panhong Chemical Technology Co., Ltd.), while other tested drugs were dissolved in saline and sonicated until clarified for administration. After establishing a systemic fungal infection model in mice for 2 hours, each group was administered by gavage with 5 mg/kg (calculated as voriconazole) drug, with the volume for administration of 0.1 ml/10 g. The mice in the model group were administered 0.1 ml/10 g of 0.9% sodium chloride solution, once daily, for 5 consecutive days. The death situation of the mice was inspected and the survival time was recorded. After a total of 7 days of observation, all dead mice were treated with fire using ethanol.

[10] = In vitro metabolic stability in human plasma; assay type: in vitro ADME; conditions: human, plasma; 37°C, compound 10 μM; read-out: Human plasma T1/2
Procedure: The two reaction systems were set up three samples in parallel, while each sample was taken in an amount of 100 μL at 1 min, 2 mins, 5 mins, 15 mins, and 30 mins after the reaction, added to the centrifuge tube containing 400 μL of 0° C. pre-cooled internal standard working fluid and terminated the reaction. The sample was mixed by vortex for 1 min, centrifuged at 10,000×g for 10 mins in a 4° C. pre-cooled high-speed centrifuge. The supernatant was taken for HPLC detection.

Human intestinal S9 T1/2 [1]: 18.21 ± 2.04 min | Solubility [2]: >50 mg/mL | Rat intestinal S9 T1/2 [3]: 26.52 ± 3.69 min | Rat plasma T1/2 [4]: 8.25 ± 1.28 min
Structure (SMILES): CC(OC(=O)N(C)c1ncccc1COC(=O)[C@@H](N)CCN)[n+]1cnn(C[C@](O)(c2ccc(F)cc2F)[C@@H](C)c2ncncc2F)c1.[Cl-] (stereo partly shown) [QR16005]

Structure (SMILES): CC(OC(=O)N(C)c1ccccc1COC(=O)[C@@H](N)CCCN)[n+]1cnn(C[C@](O)(c2ccc(F)cc2F)[C@@H](C)c2ncncc2F)c1.[Cl-] (stereo partly shown) [QR16007]
Solubility ([2]; deionized water, 25±2°C): >50 mg/mL | AUClast [5]: 10278 ± 3225 ng·h/mL | T1/2 [5]: 173 ± 73.2 min | survival rate of mice, day 1 ([6]; day 1): 100% | survival rate of mice, day 2 ([6]; day 2): 100% | survival rate of mice, day 3 ([6]; day 3): 100% | survival rate of mice, day 4 ([6]; day 4): 100% | survival rate of mice, day 5 ([6]; day 5): 100% | survival rate of mice, day 6 ([6]; day 6): 90% | Content increase of total impurity (25° C., placed for 30 days) [7]: 0.73%

Structure (SMILES): CC(OC(=O)N(C)c1ncccc1COC(=O)[C@@H](N)CCCNC(N)=O)[n+]1cnn(C[C@](O)(c2ccc(F)cc2F)[C@@H](C)c2ncncc2F)c1.[Cl-] (stereo partly shown) [QR16009]
Solubility ([2]; deionized water, 25±2°C): >50 mg/mL | T1/2 [5]: similar | AUClast [8]: 7225 ± 1310 ng·h/mL | Cmax [8]: 925 ± 121 ng/mL | T1/2 [8]: 119 ± 52.2 min | survival rate of mice, day 1 [9]: 100% | survival rate of mice, day 2 [9]: 80% | survival rate of mice, day 3 [9]: 80% | survival rate of mice, day 4 [9]: 70% | survival rate of mice, day 5 [9]: 70% | survival rate of mice, day 6 [9]: 70% | survival rate of mice, day 7 ([9]; day 7): 70% | Content increase of total impurity (25° C., placed for 30 days) [7]: 0.71%

half-life at 10 µM ([1]; human, intestinal S9, read-out: Human intestinal S9 T1/2): 43.2 ± 1.03 min | half-life at 10 µM [10]: 26 ± 2.39 min | solubility at 30 min ([2]; deionized water, 25±2°C): > 50 mg/mL | half-life at 10 µM ([3]; rat, intestinal S9, pH 7.4, read-out: Rat intestinal S9 T1/2): 56 ± 10.3 min | T1/2 [5]: similar | half-life at 10 µM ([4]; rat, plasma, read-out: Rat plasma T1/2): 29.5 ± 7.85 min
Structure (SMILES): CC(OC(=O)N(C)c1ncccc1CN)[n+]1cnn(C[C@](O)(c2ccc(F)cc2F)[C@@H](C)c2ncncc2F)c1 (stereo partly shown) [QR16022]

Structure (SMILES): CNCc1cccnc1N(C)C(=O)OC(C)[n+]1cnn(C[C@](O)(c2ccc(F)cc2F)[C@@H](C)c2ncncc2F)c1 (stereo partly shown) [QR16023]
solubility at 30 min ([2]; deionized water, 25±2°C): > 50 mg/mL | T1/2 [5]: similar | survival rate of mice, day 1 [9]: 100% | survival rate of mice, day 2 [9]: 90% | survival rate of mice, day 3 [9]: 70% | survival rate of mice, day 4 [9]: 70% | survival rate of mice, day 5 [9]: 60% | survival rate of mice, day 6 [9]: 60% | survival rate of mice, day 7 ([9]; day 7, 5 mg/kg): same with the positive drug voriconazole group | Content increase of total impurity (25° C., placed for 30 days) [7]: 2.63%

Structure (SMILES): CC(OC(=O)OCCOCCOP(=O)(O)O)[n+]1cnn(C[C@](O)(c2ccc(F)cc2F)[C@@H](C)c2ncncc2F)c1 (stereo partly shown) [QR16030]
Solubility ([2]; deionized water, 25±2°C): >50 mg/mL | AUClast [8]: 4324 ± 1362 ng·h/mL | T1/2 [8]: 152 ± 63 min | survival rate of mice, day 1 [9]: 100% | survival rate of mice, day 2 [9]: 90% | survival rate of mice, day 3 [9]: 80% | survival rate of mice, day 4 [9]: 70% | survival rate of mice, day 5 [9]: 60% | survival rate of mice, day 6 [9]: 50% | Content increase of total impurity (25° C., placed for 30 days) [7]: 0.94%

Structure (SMILES): CN[C@@H](CSC(=O)OC(C)[n+]1cnn(C[C@](O)(c2ccc(F)cc2F)[C@@H](C)c2ncncc2F)c1)C(=O)O.Cl.[Cl-] (stereo partly shown) [QR16035]
Human intestinal S9 T1/2 [1]: 29.12 ± 2.09 min | Rat intestinal S9 T1/2 [3]: 35.62 ± 8.12 min | AUClast [5]: 8256 ± 1256 ng·h/mL | Rat plasma T1/2 [4]: 11.85 ± 3.77 min | Content increase of total impurity (25° C., placed for 30 days) [7]: 1.21%
